Reference: ChEMBL document CHEMBL4813953, “Kinetics-Driven Drug Design Strategy for Next-Generation Acetylcholinesterase Inhibitors to Clinical Candidate” (J Med Chem, 2021)
The source made the active and inactive calls. The calls are words filed in the database; no cut-off is given here.

Columns and labels:
Cytochrome P450 2B6 = target: T1, Cytochrome P450 2B6 (Homo sapiens, UniProt P20813); assay: Inhibition of CYP2B6 in human hepatocytes; type: ADME, cell-based, Hepatocyte
T1 sequence (P20813 whole entry): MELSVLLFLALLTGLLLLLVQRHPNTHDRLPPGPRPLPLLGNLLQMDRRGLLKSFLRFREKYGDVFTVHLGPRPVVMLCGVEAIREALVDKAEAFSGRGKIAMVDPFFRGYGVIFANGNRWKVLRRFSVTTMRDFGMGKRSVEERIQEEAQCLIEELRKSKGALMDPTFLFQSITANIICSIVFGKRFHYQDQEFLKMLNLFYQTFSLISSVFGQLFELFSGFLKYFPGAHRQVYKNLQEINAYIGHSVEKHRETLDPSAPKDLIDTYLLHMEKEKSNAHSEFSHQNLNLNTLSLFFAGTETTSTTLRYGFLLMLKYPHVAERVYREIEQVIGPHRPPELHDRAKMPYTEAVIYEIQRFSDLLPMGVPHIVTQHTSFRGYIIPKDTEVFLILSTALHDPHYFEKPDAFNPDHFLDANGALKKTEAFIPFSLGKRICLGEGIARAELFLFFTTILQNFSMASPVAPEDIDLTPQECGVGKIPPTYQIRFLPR

[1] = MRT in Sprague-Dawley rat plasma at 10 mg/kg, po; type: ADME, organism-based
[2] = Toxicity in Beagle dog assessed as effect on body temperature at 0.1 to 1 mg/kg; type: organism-based, Canis lupus familiaris; settings: in vivo, dose 0.1-1 mg/kg
[3] = Cmax in human plasma at 1 mg, po; type: ADME, cell-free; set-up: route oral, dose 1 mg
Cytochrome P450 2C19 = Cytochrome P450 2C19 (Homo sapiens, UniProt P33261); assay: Inhibition of CYP2C19 in human hepatocytes; type: ADME, cell-based, Hepatocyte
[4] = AUC (0 to infinity) in Sprague-Dawley rat plasma at 10 mg/kg, po; type: ADME, organism-based; set-up: route oral, time infinity, dose 10 mg/kg
[5] = Protein binding in dog plasma; type: ADME, cell-free, Canis lupus familiaris; settings: read-out: PPB (converted)
[6] = Terminal half life in human plasma at 1 mg, po; type: ADME, cell-free; settings: read-out: beta t1/2 (converted)
[7] = Half life in Sprague-Dawley rat at 0.5 mg/kg, po; type: ADME, organism-based; settings: in vivo
[8] = Cmax in human plasma at 2 mg, po; type: ADME, cell-free; set-up: route oral, dose 2 mg
[9] = Tmax in human plasma at 4 mg, po; type: ADME, cell-free
[10] = Tmax in Sprague-Dawley rat plasma at 10 mg/kg, po; type: ADME, organism-based
[11] = Terminal half life in human plasma at 12 mg, po; type: ADME, cell-free; settings: read-out: beta t1/2 (converted)
Cytochrome P450 2C8 = target: T2, Cytochrome P450 2C8 (Homo sapiens, UniProt P10632); assay: Inhibition of CYP2C8 in human hepatocytes; type: ADME, cell-based, Hepatocyte
T2 sequence (P10632 whole entry): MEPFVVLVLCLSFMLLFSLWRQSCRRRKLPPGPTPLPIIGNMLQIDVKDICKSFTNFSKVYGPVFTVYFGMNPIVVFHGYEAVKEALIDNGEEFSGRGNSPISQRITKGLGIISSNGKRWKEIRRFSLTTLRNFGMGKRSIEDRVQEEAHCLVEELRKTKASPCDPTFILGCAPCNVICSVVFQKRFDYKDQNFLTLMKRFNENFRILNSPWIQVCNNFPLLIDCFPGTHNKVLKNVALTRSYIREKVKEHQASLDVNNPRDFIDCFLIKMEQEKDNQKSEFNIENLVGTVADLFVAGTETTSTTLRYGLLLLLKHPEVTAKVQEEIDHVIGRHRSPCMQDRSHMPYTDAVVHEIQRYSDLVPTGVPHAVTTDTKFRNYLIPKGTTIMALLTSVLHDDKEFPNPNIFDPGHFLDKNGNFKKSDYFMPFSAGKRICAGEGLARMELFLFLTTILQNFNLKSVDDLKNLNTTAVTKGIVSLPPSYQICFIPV

[12] = Cmax in Sprague-Dawley rat at 0.5 mg/kg, po; type: ADME, organism-based; set-up: route oral, dose 0.5 mg/kg; settings: in vivo
Cytochrome P450 2C9 = Cytochrome P450 2C9 (Homo sapiens, UniProt P11712); assay: Inhibition of CYP2C9 in human hepatocytes; type: ADME, cell-based, Hepatocyte
[13] = target: T3, Acetylcholinesterase (Mus musculus) (UniProt P21836); assay: Ex vivo inhibition of AChE in ICR mouse cortex homogenate at 2 mg/kg, ig using acetylthiocholine iodide as substrate measured after 30 to 240 mins by DTNB reagent based assay; type: functional, organism-based; settings: time 30-240 min
T3 sequence (whole entry): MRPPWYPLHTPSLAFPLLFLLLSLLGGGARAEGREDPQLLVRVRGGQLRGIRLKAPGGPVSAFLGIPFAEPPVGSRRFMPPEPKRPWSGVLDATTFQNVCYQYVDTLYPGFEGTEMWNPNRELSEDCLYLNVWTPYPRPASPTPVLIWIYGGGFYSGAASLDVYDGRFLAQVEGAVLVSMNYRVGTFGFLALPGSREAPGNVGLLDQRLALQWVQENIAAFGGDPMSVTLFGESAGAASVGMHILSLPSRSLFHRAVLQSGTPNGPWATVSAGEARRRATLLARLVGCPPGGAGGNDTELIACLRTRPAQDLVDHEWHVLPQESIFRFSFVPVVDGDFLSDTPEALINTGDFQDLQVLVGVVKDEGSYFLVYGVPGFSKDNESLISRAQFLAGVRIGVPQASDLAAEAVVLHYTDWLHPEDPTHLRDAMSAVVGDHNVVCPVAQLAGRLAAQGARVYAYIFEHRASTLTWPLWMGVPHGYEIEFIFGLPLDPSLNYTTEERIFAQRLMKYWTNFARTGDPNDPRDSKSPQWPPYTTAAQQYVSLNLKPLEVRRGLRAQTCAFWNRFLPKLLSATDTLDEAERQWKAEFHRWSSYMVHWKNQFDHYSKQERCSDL

[14] = Tmax in human plasma at 8 mg, po; type: ADME, cell-free
Mus musculus = assay: Improvement in learning and spatial memory in APP/PS1 double mutant-transgenic mouse model assessed as increase in time spent in target quadrant at 0.5 to 1 mg/kg, IG QD by Morris water maze test; type: functional, organism-based; settings: dose 0.5-1 mg/kg
[15] = MRT (0 to infinity) in Beagle dog at 0.25 mg/kg, iv; type: ADME, organism-based, Canis lupus familiaris; settings: in vivo
[16] = Protein binding in rat plasma; type: ADME, cell-free; settings: read-out: PPB (converted)
[17] = Half life in Sprague-Dawley rat plasma at 10 mg/kg, po; type: ADME, organism-based
[18] = Tmax in Sprague-Dawley rat at 0.5 mg/kg, po; type: ADME, organism-based; settings: in vivo
[19] = target: T3, Acetylcholinesterase (Mus musculus); assay: Ex vivo inhibition of AChE in ICR mouse hippocampal homogenate at 2 mg/kg, ig using acetylthiocholine iodide as substrate measured after 30 to 240 mins by DTNB reagent based assay; type: functional, organism-based; settings: time 30-240 min
[20] = Cmax in Beagle dog at 0.25 mg/kg, po; type: ADME, organism-based, Canis lupus familiaris; set-up: route oral, dose 0.25 mg/kg; settings: in vivo
[21] = Tmax in Beagle dog at 0.25 mg/kg, po; type: ADME, organism-based, Canis lupus familiaris; settings: in vivo
[22] = Toxicity in Beagle dog assessed as effect on respiration at 0.1 to 1 mg/kg; type: organism-based, Canis lupus familiaris; settings: in vivo, dose 0.1-1 mg/kg
[23] = Volume of distribution at steady state in Beagle dog at 0.5 mg/kg, po or iv; type: ADME, organism-based, Canis lupus familiaris; settings: in vivo, read-out: Vdss
[24] = Genotoxicity in Salmonella typhimurium TA1535 by Ames test; type: toxicity; settings: salmonella enterica subsp. enterica serovar typhimurium
Butyrylcholinesterase = Butyrylcholinesterase (Rattus norvegicus, UniProt Q9JKC1); assay: Inhibition of rat serum BuChE using S-butyrylthiocholine iodide as substrate incubated for 8 mins by Ellman's method; type: cell-free
Butyrylcholinesterase, sequence (Q9JKC1 whole entry): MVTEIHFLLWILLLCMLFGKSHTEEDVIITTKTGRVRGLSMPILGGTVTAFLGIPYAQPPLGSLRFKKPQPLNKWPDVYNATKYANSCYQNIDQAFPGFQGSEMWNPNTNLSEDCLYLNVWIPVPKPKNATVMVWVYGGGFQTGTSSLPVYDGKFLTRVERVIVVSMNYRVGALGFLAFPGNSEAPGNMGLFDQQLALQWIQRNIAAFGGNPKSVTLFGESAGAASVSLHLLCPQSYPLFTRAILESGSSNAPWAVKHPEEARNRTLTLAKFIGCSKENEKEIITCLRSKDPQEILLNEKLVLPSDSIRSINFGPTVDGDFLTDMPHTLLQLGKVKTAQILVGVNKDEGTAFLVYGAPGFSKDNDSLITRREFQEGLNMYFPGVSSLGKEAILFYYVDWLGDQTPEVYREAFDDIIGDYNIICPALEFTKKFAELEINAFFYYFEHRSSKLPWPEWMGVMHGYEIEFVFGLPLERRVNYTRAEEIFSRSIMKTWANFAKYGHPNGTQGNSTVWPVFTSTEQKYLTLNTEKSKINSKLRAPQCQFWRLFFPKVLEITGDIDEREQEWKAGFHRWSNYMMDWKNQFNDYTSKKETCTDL

Cytochrome P450 2C19, sequence (P33261 whole entry): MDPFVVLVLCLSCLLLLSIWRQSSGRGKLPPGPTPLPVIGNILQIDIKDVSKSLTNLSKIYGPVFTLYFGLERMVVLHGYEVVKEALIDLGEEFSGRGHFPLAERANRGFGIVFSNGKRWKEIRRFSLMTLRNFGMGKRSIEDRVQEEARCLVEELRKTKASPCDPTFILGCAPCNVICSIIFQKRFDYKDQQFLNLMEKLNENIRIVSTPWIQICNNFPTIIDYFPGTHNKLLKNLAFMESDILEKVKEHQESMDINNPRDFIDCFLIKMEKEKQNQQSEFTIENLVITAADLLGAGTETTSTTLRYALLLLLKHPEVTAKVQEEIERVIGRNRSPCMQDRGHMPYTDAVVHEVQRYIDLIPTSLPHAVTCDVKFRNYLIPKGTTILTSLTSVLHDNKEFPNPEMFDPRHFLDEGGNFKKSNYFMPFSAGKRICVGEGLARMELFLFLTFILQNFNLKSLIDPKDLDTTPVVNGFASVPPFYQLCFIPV
Cytochrome P450 2C9, sequence (P11712 whole entry): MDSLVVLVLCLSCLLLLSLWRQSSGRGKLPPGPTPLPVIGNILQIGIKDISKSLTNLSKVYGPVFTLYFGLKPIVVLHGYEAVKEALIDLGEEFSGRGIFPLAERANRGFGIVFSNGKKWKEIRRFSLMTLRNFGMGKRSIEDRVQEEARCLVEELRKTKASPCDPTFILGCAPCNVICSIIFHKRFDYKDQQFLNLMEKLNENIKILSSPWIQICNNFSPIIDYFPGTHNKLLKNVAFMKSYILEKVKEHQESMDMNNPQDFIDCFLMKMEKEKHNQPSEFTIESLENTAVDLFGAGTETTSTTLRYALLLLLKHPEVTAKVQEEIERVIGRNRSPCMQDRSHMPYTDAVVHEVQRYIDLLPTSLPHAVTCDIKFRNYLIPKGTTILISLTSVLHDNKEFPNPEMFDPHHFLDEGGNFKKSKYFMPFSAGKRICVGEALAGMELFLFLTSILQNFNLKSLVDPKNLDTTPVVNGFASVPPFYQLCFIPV

Compound: COc1cc2c(cc1OC)C(=O)C(CC1(F)CCN(Cc3ccccc3F)CC1)C2 (stereo not given)
- IC50 (Cytochrome P450 2B6): > 30 µM
- MRT [1]: 6.81 h
- Activity [2]: Non-Toxic
- Cmax [3]: 1.19 ng/mL
- IC50 (Cytochrome P450 2C19): > 30 µM
- AUC(0-inf) [4]: 1140 ng·h/mL
- fraction unbound [5]: 0.035
- half-life [6]: 14.2 h
- half-life [7]: 4.17 h
- Cmax [8]: 2.43 ng/mL
- Tmax [9]: 0.75 h
- Tmax [10]: 0.5 h
- half-life [11]: 32.1 h
- IC50 (Cytochrome P450 2C8): > 30 µM
- Cmax [12]: 35.7 ng/mL
- IC50 (Cytochrome P450 2C9): 4.77 µM
- inhibition [13]: Active
- Tmax [14]: 1.13 h
- Activity (Mus musculus): Active
- MRT inf [15]: 23.6 h
- fraction unbound [16]: 0.031
- half-life [17]: 5.57 h
- Tmax [18]: 0.63 h
- inhibition [19]: Active
- Cmax [20]: 16.9 ng/mL
- Tmax [21]: 0.92 h
- Activity [22]: Non-Toxic
- Vd [23]: 23.2 L/kg
- Activity [24]: Non-Toxic
- IC50 (Butyrylcholinesterase): 31.7 µM
